Assay results as given in BigSolDB 2.1.

C=C1C[C@]23C[C@@]1(O)CC[C@H]2[C@@]12C=C[C@H](O)[C@@](C)(C(=O)O1)[C@H]2[C@@H]3C(=O)O
solubility (mole fraction)
Conditions | 278.15 K | 283.15 K | 288.15 K | 293.15 K | 298.15 K | 303.15 K | 308.15 K | 313.15 K | 318.15 K | 323.15 K
in DMSO | 0.121 | 0.138 | 0.159 | 0.184 | 0.207 | 0.233 | 0.263 | 0.291 | 0.323 | 0.362
in THF | 0.149 | 0.173 | 0.199 | 0.227 | 0.252 | 0.279 | 0.31 | 0.341 | 0.371 | 0.401
in acetone | 0.103 | 0.12 | 0.137 | 0.158 | 0.181 | 0.205 | 0.23 | 0.258 | 0.289 | 0.32
in acetonitrile | 0.00864 | 0.0119 | 0.0155 | 0.0197 | 0.0243 | 0.0294 | 0.0352 | 0.0413 | 0.0481 | 0.0565
in chloroform | 0.0222 | 0.0302 | 0.0386 | 0.0479 | 0.0591 | 0.0715 | 0.085 | 0.0994 | 0.114 | 0.13
in ethanol | 0.181 | 0.205 | 0.231 | 0.257 | 0.284 | 0.312 | 0.344 | 0.374 | 0.404 | 0.438
in ethyl acetate | 0.0679 | 0.0807 | 0.0956 | 0.112 | 0.132 | 0.152 | 0.175 | 0.203 | 0.235 | 0.271
in isopropanol | 0.000502 | 0.000563 | 0.000625 | 0.000688 | 0.000752 | 0.000821 | 0.000888 | 0.00096 | 0.00103 | 0.00111
in n-butanol | 0.0021 | 0.00318 | 0.00427 | 0.00554 | 0.00704 | 0.00876 | 0.0107 | 0.0129 | 0.0151 | 0.0173
in n-heptane | 8.4e-05 | 0.000116 | 0.000152 | 0.000192 | 0.000236 | 0.000289 | 0.000349 | 0.000407 | 0.000471 | 0.000537
in n-hexane | 0.00017 | 0.000202 | 0.000239 | 0.000282 | 0.00033 | 0.000386 | 0.000444 | 0.000511 | 0.000583 | 0.000666
